Where two headings read alike, the source gives them in different places. Marks after values point to notes of the source that are not given here.
Key:
Human BAK-∆TM-His6 (BAK) = target: T1, Human BAK-∆TM-His6 (BAK) (Homo sapiens, UniProt Q16611); assay: Liposome permeabilization assay (ANTS/DPX dye release from LUVs): activation of WT BAK by BH3 peptides;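 on AUC for Experiment-2 (Mean): traces normalized between buffer minimum and 3% CHAPS maximum fluorescence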;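 on AUC for Experiment-3 (Mean): traces normalized between buffer minimum and 3% CHAPS maximum fluorescence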; type: biochemical; parameters: AUC for Experiment-2 (Mean) / AUC for Experiment-3 (Mean) / AUC for Experiment-1 (Mean):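 traces normalized between buffer minimum and 3% CHAPS maximum fluorescence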; conditions: for AUC for Experiment-1 (Mean) / AUC for Experiment-2 (Mean) / AUC for Experiment-3 (Mean): AUC 0-88 mins of liposome permeabilization; for AUC for Experiment-1 (Mean): Experiment-1, mean of N replicates; for AUC for Experiment-2 (Mean): Experiment-2, mean of N replicates; for AUC for Experiment-3 (Mean): Experiment-3, mean of N replicates; for EC50: Fig. 4e, AUC vs peptide dose (Suppl. Fig. 6b), n = 2 experiments each of n = 3 technical replicates, read-out: EC50 LP; for EC50 / direct BAK activation compared to WT BID BH3: 50 nM BAK; for direct BAK activation compared to WT BID BH3: liposome permeabilization, Fig. 4c, e
T1 construct: C-terminus truncated recombinant human BAK containing C-terminal 6× histidine tag (MEAS-BAK); made in house; host or cells: E. coli T7 Express pLac I/Y
T1 sequence (Q16611 1-186 limits assumed): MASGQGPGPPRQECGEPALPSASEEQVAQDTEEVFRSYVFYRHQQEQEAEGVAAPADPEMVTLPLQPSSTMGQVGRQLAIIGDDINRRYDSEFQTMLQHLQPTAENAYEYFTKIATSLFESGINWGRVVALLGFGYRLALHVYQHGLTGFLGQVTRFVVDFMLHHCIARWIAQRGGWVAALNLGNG
Description: We performed liposome permeabilization assays as previously described[43]–[46]. […] We mixed the lipid film in ANTS/DPX solution by vortexing and sonication (~15 min) followed by extrusion through polycarbonate membrane of 2 μm pore size (Avanti Polar lipids) to generate homogenous large unilamellar vesicles (LUVs). We separated LUVs from free ANTS/DPX by S500 size exclusion chromatography and stored them at 4 °C in the dark. We prepared peptide and protein dilutions in 96-well black flat bottom plates (Costar) kept on ice. […] We quantified liposome permabilization by integrating area under curve (AUC) of normalized traces based on the Simpson’s equation, and analyzed that data in Excel and GraphPad Prism. AUC measurements reflect the kinetic and extent of liposome permeabilization and provide quantitative means for comparison between different experimental conditions (e.g., BAK mutants with gross or partial variation in activity).

GST-BAK = target: T2, GST-BAK (Homo sapiens, UniProt Q16611); assay: Competitive fluorescence polarization assay (displacement of BID BH3 SAHB-F); type: binding
T2 construct: made in house
T2 sequence (Q16611 1-211): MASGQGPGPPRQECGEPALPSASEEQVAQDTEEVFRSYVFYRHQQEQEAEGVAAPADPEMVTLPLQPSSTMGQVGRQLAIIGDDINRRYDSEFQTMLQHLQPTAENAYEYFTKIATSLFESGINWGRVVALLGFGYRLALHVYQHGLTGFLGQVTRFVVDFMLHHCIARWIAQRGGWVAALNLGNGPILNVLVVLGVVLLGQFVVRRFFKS
From the text: We also tested the monosubstituted peptides in competitive fluorescence polarization (FP) binding assays, which measure displacement from GST-BAK of BID BH3 stabilized alpha helix of BCL-2 proteins (SAHB) C-terminally tagged with fluorescein and thus informs on peptide binding affinity.
We carried out fluorescence polarization assays, measuring the displacement of the fluorescent peptide BID BH3 SAHB-F from GST-BAK, in 384-well Greiner black polystyrene plates with flat bottom (Sigma-Aldrich). Master mix consisted of 50 mM Tris-HCl pH 7.5, 50 mM KCl, 0.1 mg/mL BSA, 2 mM DTT, 0.005% Tween-20, 10 nM BID BH3 SAHB-F, and 1 µM GST-BAK. We pin transferred peptides using Biomek FX (Beckman Coulter Life Sciences, IN) to achieve final concentration of 500−0.2 µM in 20 µL final volume. We gently centrifuged plates to remove air bubbles for 1 min at 1000 rpm, and incubated them for 60 min at RT. […] Free peptide controls in each plate consisted of only BID BH3 SAHB-F and bound peptide controls containing BID BH3 SAHB-F + GST-BAK. We derived Z’-values using the equation [1 − 3(stdev^L + stdev^H)]/(average^H − average^L), where L is the free peptide control and H is the bound peptide control. […] We processed and visualized data using the software Robust Investigation of Screening Experiments (RISE) developed in house in the Pipeline Pilot platform (Accelrys, v.8.5.0). We performed at least three independent dose-response experiments for each peptide. We estimated IC50 values in RISE and GraphPad Prism v.8.0a.

[1] = displacement of 10 nM BID BH3 SAHB-fluorescein from 1 µM GST-BAK, peptide 500−0.2 µM, 60 min RT, mean ± SD, n = 9 experiments, read-out: IC50 FP

Row | Substance | AUC for Experiment-1 (Mean) (Human BAK-∆TM-His6 (BAK); 1 μM peptide + 50 nM BAK) | AUC for Experiment-2 (Mean) (Human BAK-∆TM-His6 (BAK); 1 μM peptide + 50 nM BAK) | AUC for Experiment-3 (Mean) (Human BAK-∆TM-His6 (BAK); 1 μM peptide + 50 nM BAK) | AUC for Experiment-1 (Mean) (Human BAK-∆TM-His6 (BAK); 50 μM peptide + 50 nM BAK) | AUC for Experiment-2 (Mean) (Human BAK-∆TM-His6 (BAK); 50 μM peptide + 50 nM BAK) | AUC for Experiment-3 (Mean) (Human BAK-∆TM-His6 (BAK); 50 μM peptide + 50 nM BAK) | EC50 (Human BAK-∆TM-His6 (BAK)) [µM] | IC50 (GST-BAK; competitive FP, Experiment-1) [µM] | IC50 (GST-BAK; competitive FP, Experiment-2) [µM] | IC50 (GST-BAK; competitive FP, Experiment-3) [µM] | IC50 (GST-BAK; competitive FP, Experiment-4) [µM] | IC50 (GST-BAK; competitive FP, Experiment-5) [µM] | IC50 (GST-BAK; competitive FP, Experiment-6) [µM] | IC50 (GST-BAK; competitive FP, Experiment-7) [µM] | IC50 (GST-BAK; competitive FP, Experiment-8) [µM] | IC50 (GST-BAK; competitive FP, Experiment-9) [µM] | IC50 (GST-BAK; competitive FP, mean of the experiments (replicated 4-9 times), read-out: IC50 Mean) [µM] | direct BAK activation compared to WT BID BH3 (Human BAK-∆TM-His6 (BAK)) | IC50 (GST-BAK; [1]) [µM]
1 | Ac-EDIIRNIARHMAQVGDSMDRSI-NH2 [M(2)] | 8.056 | 3.548 | 5.055 | 8.1746 | 3.897 | 7.008 | 0.366 ± 0.0892 |  |  |  |  |  |  |  |  |  |  |  | 
2 | Ac-EDIIRNIARHLAQMGDSMDRSI-NH2 [M(3)] | 20.936 | 21.86 | 19.004 | 18.852 | 17.743 | 12.625 | 0.114 ± 0.0225 | 5.395 | 4.243 | 5.717 | 4.044 | 4.59 | 4.39 | 3.925 | 4.319 | 4.861 | 4.6 | gain in direct BAK activation compared to WT BID BH3 | 
3 | Ac-EDIIRNIARHWAQVGDSMDRSI-NH2 [W(2)] | 4.9093 | 3.613 | 3.7546 | 2.3973 | 4.6314 | 0.7562* | 1.08 ± 0.453 |  |  |  |  |  |  |  |  |  |  | less direct BAK activation compared to WT BID BH3 | 
4 | Ac-EDIIRNIARHLAQVGDSFDRSI-NH2 [F(4)] | 9.5438 | 9.663 | 8.9802 | 10.729 | 10.153 | 6.338 | 0.229 ± 0.0111 |  |  |  |  |  |  |  |  |  |  | less direct BAK activation compared to WT BID BH3 | 11.9 ± 3.7
5 | Ac-EDIIRNIARHLAQFGDSMDRSI-NH2 [F(3)] | 18.713 | 17.421 | 16.388 | 17.267 | 18.39 | 17.889 | 0.11 ± 0.0161 |  |  |  |  |  |  |  |  |  |  | gain in direct BAK activation compared to WT BID BH3 | 11.3 ± 3.9
6 | Ac-EDIIRNWARHLAQVGDSMDRSI-NH2 [W(1)] | 5.265 | 7.491 | 5.218 | 7.873 | 8.991 | 6.529 | 1.7 ± 0.446 |  |  |  |  |  |  |  |  |  |  | less direct BAK activation compared to WT BID BH3 | 
7 | Ac-EDIIRNIARHLAQVGDSWDRSI-NH2 [W(4)] | 16.565 | 21.49 | 16.942 | 21.822 | 26.263 | 21.192 | 0.264 ± 0.0091 |  |  |  |  |  |  |  |  |  |  | gain in direct BAK activation compared to WT BID BH3 | 11.5 ± 7.5
8 | Ac-EDIIRNIARHFAQVGDSMDRSI-NH2 [F(2)] | 10.629 | 6.9165 | 10.58 | 9.2417 | 6.0451 | 8.2141 | 0.29 ± 0.0426 |  |  |  |  |  |  |  |  |  |  |  | 
9 | Ac-EDIIRNIARHYAQVGDSMDRSI-NH2 [Y(2)] | 4.2367 | 5.3994 | 3.7484 | 8.0372 | 6.4388 | 4.7986 | 1.21 ± 0.696 |  |  |  |  |  |  |  |  |  |  | less direct BAK activation compared to WT BID BH3 | 
10 | Ac-EDIIRNIARHLAQYGDSMDRSI-NH2 [Y(3)] | 14.1 | 10.652 | 12.187 | 18.672 | 10.496 | 13.717 | 0.372 ± 0.116 |  |  |  |  |  |  |  |  |  |  |  | 6.2 ± 1.5
11 | Ac-EDWIRNIARHLAQVGDSMDRSI-NH2 [W(0)] | 14.3256 | 13.2515 | 14.8765 | 13.3871 | 11.7489 | 12.1647 | 0.365 ± 0.0228 |  |  |  |  |  |  |  |  |  |  |  | 10.8 ± 5.5
12 | Ac-EDIWRNIARHLAQVGDSMDRSI-NH2 [W(0')] | 15.025 | 10.6297 | 8.405 | 12.2448 | 5.78* | 12.8163 | 0.242 ± 0.0663 |  |  |  |  |  |  |  |  |  |  |  | 27.4 ± 16.4

Source: publication PMC8752837, “Structural basis of BAK activation in mitochondrial apoptosis initiation” (Nature Communications, 2022)
